Source: ChEMBL document CHEMBL3137667, “[Drug-induced liver injury; fourteenth updated edition of the bibliographic database of liver injuries and related drugs]” (Gastroenterol Clin Biol, 2004)

How the values were obtained:
[1] = Highest frequency of acute liver toxicity observed during clinical trials, expressed as a percentage. [column '% AIGUE' in source]; details: human
[2] = Times to onset, minimal and maximal, observed in the indexed observations. [column 'DELAI' in source]; details: human
[3] = human
[4] = human; remark: listed apart in the source
[5] = human, serum, 4383 h
[6] = human; remark: listed apart in the source
[7] = human; remark: listed apart in the source
[8] = Highest frequency of moderate liver toxicity observed during clinical trials, expressed as a percentage. [column '% BIOL' in source]; details: human
[9] = human; remark: listed apart in the source
[10] = human, serum
[11] = human; remark: listed apart in the source
[12] = human; remark: listed apart in the source
[13] = human, serum; remark: listed apart in the source
[14] = Proposed mechanism(s) of liver damage. [column 'MEC' in source]; details: human
[15] = human; remark: listed apart in the source
[16] = human; remark: listed apart in the source
[17] = human; remark: listed apart in the source
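Throughout, for Hepatotoxicity (association with vascular disease): count of indexed literature references reporting vascular liver injury in humans, e.g. peliosis hepatitis, hepatic veno-occlusive disease or Budd-Chiari syndrome.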
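Throughout, for Hepatotoxicity (benign tumour): value is a count of indexed literature references citing a benign tumour confirmed by histopathology.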
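Throughout, for Hepatotoxicity (choleostasis): human cholestatic liver injury, shown by histopathology or by peak ALT or AST elevation over alkaline phosphatase ratio below 2, value counts indexed literature reports.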
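Throughout, for Hepatotoxicity (chronic liver disease): chronic liver injury confirmed by histopathology or persistently raised serum aminotransferase activity beyond 6 months, value given as the count of indexed literature references.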
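Throughout, for Hepatotoxicity (cirrhosis): value is a count of indexed literature references reporting cirrhosis confirmed by histopathology.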
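Throughout, for Hepatotoxicity (cytolytic): human cytolytic liver injury, shown by histopathology or by a ratio above 5 of peak ALT or AST elevation to alkaline phosphatase elevation, value counts indexed references.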
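Throughout, for Hepatotoxicity (granulomatous hepatitis): value is a count of indexed literature references reporting granulomatous liver disease confirmed by histopathology.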
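Throughout, for Hepatotoxicity (malignant tumour): malignant tumour confirmed by histopathology, value gives the count of indexed literature references reporting it.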
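Throughout, for Hepatotoxicity (severe hepatitis): human clinical data: severe hepatitis, meaning potentially life-threatening liver failure or clinically observed cases, the value counts how many indexed literature references report it.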
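Throughout, for Hepatotoxicity (steatosis): steatosis confirmed by histopathology, value is the count of indexed references.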

Compound: Cc1c(N(C)C)c(=O)n(-c2ccccc2)n1C [AMINOPYRINE]
- Hepatotoxicity (acute) ([1]; Liver): 0%
- Hepatotoxicity (time to onset) [2]: 3 months
- Hepatotoxicity (association with vascular disease) [3]: 0
- Hepatotoxicity (granulomatous hepatitis) [4]: 0
- Hepatotoxicity (chronic liver disease) [5]: 0
- Hepatotoxicity (cytolytic) [6]: 3
- Hepatotoxicity (severe hepatitis) ([7]; Liver): 2
- Hepatotoxicity (moderate) ([8]; Liver): 0%
- Hepatotoxicity (steatosis) [9]: 1
- Hepatotoxicity (moderate) [10]: 2
- Hepatotoxicity (benign tumour) [11]: 0
- Hepatotoxicity (malignant tumour) [12]: 0
- Hepatotoxicity (acute) [13]: 6
- Hepatotoxicity (mechanism) [14]: Dose-dependant
- Hepatotoxicity (choleostasis) [15]: 1
- Hepatotoxicity (cirrhosis) [16]: 0
- Hepatotoxicity (animal toxicity known) [17]: yes

Compound: O=NN(CCCl)C(=O)NCCCl [CARMUSTINE]
- Hepatotoxicity (acute) [1]: 23%
- Hepatotoxicity (time to onset) [2]: 1 week - 6 weeks
- Hepatotoxicity (association with vascular disease) [3]: 10
- Hepatotoxicity (granulomatous hepatitis) [4]: 0
- Hepatotoxicity (chronic liver disease) [5]: 0
- Hepatotoxicity (cytolytic) [6]: 3
- Hepatotoxicity (severe hepatitis) [7]: 2
- Hepatotoxicity (moderate) [8]: 26%
- Hepatotoxicity (steatosis) [9]: 0
- Hepatotoxicity (moderate) [10]: 8
- Hepatotoxicity (benign tumour) [11]: 0
- Hepatotoxicity (malignant tumour) [12]: 0
- Hepatotoxicity (acute) [13]: 6
- Hepatotoxicity (mechanism) [14]: Dose-dependant
- Hepatotoxicity (choleostasis) [15]: 1
- Hepatotoxicity (cirrhosis) [16]: 0
- Hepatotoxicity (animal toxicity known) [17]: yes

Compound: COC(=O)[C@H]1[C@H]2C[C@@H]3c4[nH]c5cc(OC)ccc5c4CCN3C[C@H]2C[C@@H](OC(=O)c2cc(OC)c(OC)c(OC)c2)[C@@H]1OC [RESERPINE]
- Hepatotoxicity (acute) [1]: 0%
- Hepatotoxicity (time to onset) [2]: 1 year
- Hepatotoxicity (association with vascular disease) [3]: 0
- Hepatotoxicity (granulomatous hepatitis) [4]: 0
- Hepatotoxicity (chronic liver disease) [5]: 0
- Hepatotoxicity (cytolytic) [6]: 0
- Hepatotoxicity (severe hepatitis) [7]: 0
- Hepatotoxicity (moderate) [8]: 0%
- Hepatotoxicity (steatosis) [9]: 0
- Hepatotoxicity (moderate) [10]: 0
- Hepatotoxicity (benign tumour) [11]: 0
- Hepatotoxicity (malignant tumour) [12]: 0
- Hepatotoxicity (acute) [13]: 3
- Hepatotoxicity (choleostasis) [15]: 1
- Hepatotoxicity (cirrhosis) [16]: 0
- Hepatotoxicity (animal toxicity known) [17]: yes

Compound: CN(C)[C@@H]1C(O)=C(C(=O)NCN2CCCC2)C(=O)[C@@]2(O)C(O)=C3C(=O)c4c(O)cccc4[C@@](C)(O)[C@H]3C[C@@H]12 [ROLITETRACYCLINE]
- Hepatotoxicity (acute) [1]: 0%
- Hepatotoxicity (time to onset) [2]: 2 days
- Hepatotoxicity (association with vascular disease) [3]: 0
- Hepatotoxicity (granulomatous hepatitis) [4]: 0
- Hepatotoxicity (chronic liver disease) [5]: 0
- Hepatotoxicity (cytolytic) [6]: 1
- Hepatotoxicity (severe hepatitis) [7]: 1
- Hepatotoxicity (moderate) [8]: 0%
- Hepatotoxicity (steatosis) [9]: 0
- Hepatotoxicity (moderate) [10]: 0
- Hepatotoxicity (benign tumour) [11]: 0
- Hepatotoxicity (malignant tumour) [12]: 0
- Hepatotoxicity (acute) [13]: 1
- Hepatotoxicity (choleostasis) [15]: 0
- Hepatotoxicity (cirrhosis) [16]: 0
- Hepatotoxicity (animal toxicity known) [17]: yes

Compound: N=C(N)c1ccc(/C=C/c2ccc(C(=N)N)cc2)cc1 [STILBAMIDINE]
- Hepatotoxicity (acute) [1]: 0%
- Hepatotoxicity (time to onset) [2]: 1 month - 3 months
- Hepatotoxicity (association with vascular disease) [3]: 0
- Hepatotoxicity (granulomatous hepatitis) [4]: 0
- Hepatotoxicity (chronic liver disease) [5]: 0
- Hepatotoxicity (cytolytic) [6]: 1
- Hepatotoxicity (severe hepatitis) [7]: 0
- Hepatotoxicity (moderate) [8]: 0%
- Hepatotoxicity (steatosis) [9]: 0
- Hepatotoxicity (moderate) [10]: 0
- Hepatotoxicity (benign tumour) [11]: 0
- Hepatotoxicity (malignant tumour) [12]: 0
- Hepatotoxicity (acute) [13]: 1
- Hepatotoxicity (choleostasis) [15]: 0
- Hepatotoxicity (cirrhosis) [16]: 0
- Hepatotoxicity (animal toxicity known) [17]: yes

Compound: COc1ccc(NS(=O)(=O)c2ccc(N)cc2)nn1 [SULFAMETHOXYPYRIDAZINE]
- Hepatotoxicity (acute) [1]: 0%
- Hepatotoxicity (time to onset) [2]: 1 month - 2 months
- Hepatotoxicity (association with vascular disease) [3]: 0
- Hepatotoxicity (granulomatous hepatitis) [4]: 0
- Hepatotoxicity (chronic liver disease) [5]: 0
- Hepatotoxicity (cytolytic) [6]: 4
- Hepatotoxicity (severe hepatitis) [7]: 0
- Hepatotoxicity (moderate) [8]: 0%
- Hepatotoxicity (steatosis) [9]: 0
- Hepatotoxicity (moderate) [10]: 0
- Hepatotoxicity (benign tumour) [11]: 0
- Hepatotoxicity (malignant tumour) [12]: 0
- Hepatotoxicity (acute) [13]: 4
- Hepatotoxicity (choleostasis) [15]: 2
- Hepatotoxicity (cirrhosis) [16]: 0
- Hepatotoxicity (animal toxicity known) [17]: yes

Compound: COc1ccc2c(C(=S)N(C)CC(=O)O)cccc2c1C(F)(F)F [TOLRESTAT]
- Hepatotoxicity (acute) [1]: 0.2%
- Hepatotoxicity (time to onset) [2]: 7 weeks - 6 months
- Hepatotoxicity (association with vascular disease) [3]: 0
- Hepatotoxicity (granulomatous hepatitis) [4]: 0
- Hepatotoxicity (chronic liver disease) [5]: 0
- Hepatotoxicity (cytolytic) [6]: 2
- Hepatotoxicity (severe hepatitis) [7]: 1
- Hepatotoxicity (moderate) [8]: 15.4%
- Hepatotoxicity (steatosis) [9]: 0
- Hepatotoxicity (moderate) [10]: 7
- Hepatotoxicity (benign tumour) [11]: 0
- Hepatotoxicity (malignant tumour) [12]: 0
- Hepatotoxicity (acute) [13]: 2
- Hepatotoxicity (choleostasis) [15]: 0
- Hepatotoxicity (cirrhosis) [16]: 0
- Hepatotoxicity (animal toxicity known) [17]: yes

Compound: OCC(Br)(Br)Br [TRIBROMOETHANOL]
- Hepatotoxicity (acute) [1]: 0.1%
- Hepatotoxicity (time to onset) [2]: 1 day - 4 days
- Hepatotoxicity (association with vascular disease) [3]: 0
- Hepatotoxicity (granulomatous hepatitis) [4]: 0
- Hepatotoxicity (chronic liver disease) [5]: 0
- Hepatotoxicity (cytolytic) [6]: 8
- Hepatotoxicity (severe hepatitis) [7]: 15
- Hepatotoxicity (moderate) [8]: 0%
- Hepatotoxicity (steatosis) [9]: 9
- Hepatotoxicity (moderate) [10]: 1
- Hepatotoxicity (benign tumour) [11]: 0
- Hepatotoxicity (malignant tumour) [12]: 0
- Hepatotoxicity (acute) [13]: 9
- Hepatotoxicity (choleostasis) [15]: 0
- Hepatotoxicity (cirrhosis) [16]: 0
- Hepatotoxicity (animal toxicity known) [17]: yes

Compound: C[C@H](CCC(=O)O)[C@H]1CC[C@H]2[C@@H]3[C@@H](O)C[C@@H]4C[C@H](O)CC[C@]4(C)[C@H]3CC[C@]12C [URSODIOL]
- Hepatotoxicity (acute) [1]: 0%
- Hepatotoxicity (time to onset) [2]: 3 weeks - 14 weeks
- Hepatotoxicity (association with vascular disease) [3]: 0
- Hepatotoxicity (granulomatous hepatitis) [4]: 0
- Hepatotoxicity (chronic liver disease) [5]: 0
- Hepatotoxicity (cytolytic) [6]: 0
- Hepatotoxicity (severe hepatitis) [7]: 0
- Hepatotoxicity (moderate) [8]: 4.2%
- Hepatotoxicity (steatosis) [9]: 0
- Hepatotoxicity (moderate) [10]: 8
- Hepatotoxicity (benign tumour) [11]: 0
- Hepatotoxicity (malignant tumour) [12]: 0
- Hepatotoxicity (acute) [13]: 1
- Hepatotoxicity (choleostasis) [15]: 0
- Hepatotoxicity (cirrhosis) [16]: 0
- Hepatotoxicity (animal toxicity known) [17]: yes

Compound: ASPARAGINASE
- Hepatotoxicity (acute) [1]: 2.9%
- Hepatotoxicity (association with vascular disease) [3]: 0
- Hepatotoxicity (granulomatous hepatitis) [4]: 0
- Hepatotoxicity (chronic liver disease) [5]: 0
- Hepatotoxicity (cytolytic) [6]: 1
- Hepatotoxicity (severe hepatitis) [7]: 2
- Hepatotoxicity (moderate) [8]: 63%
- Hepatotoxicity (steatosis) [9]: 9
- Hepatotoxicity (moderate) [10]: 27
- Hepatotoxicity (benign tumour) [11]: 0
- Hepatotoxicity (malignant tumour) [12]: 0
- Hepatotoxicity (acute) [13]: 2
- Hepatotoxicity (mechanism) [14]: Dose-dependant
- Hepatotoxicity (choleostasis) [15]: 0
- Hepatotoxicity (cirrhosis) [16]: 0
- Hepatotoxicity (animal toxicity known) [17]: yes
